Assays:
Assay in all cases: Minimum inhibitory concentration
Assay type in all cases: cell-based
Conditions in all cases: at pH 5.5, 1% solution
[1] = system: Pseudomonas aeruginosa ATCC 15442
Source text: (§1) These gentle antimicrobials are well-established in personal care industry for their skin and scalp care benefits that stem from their broad range of antimicrobial activity. These are mostly deployed in a variety of ‘liquid’ wash formulations (body wash/hair wash) and sometimes in ‘leave-on’ creams and lotions (anti-acne). […] These two lipidated glycines, alone as well as when combined together, show remarkable activity against Candida albicans and Candida glabrata yeast (vaginal candidiasis, the yeast infection) and Gardnerella vaginalis (a Gram-variable bacterium that is a causative microbe for bacterial vaginosis). […] These two N-acyl glycines, akin to skin fatty acids, are devoid of any structural feature, like halogen atom or a heterocycle, that can be a potential hazard to the environment and living systems. […] The N-acyl glycine alone or in combination can be used up to 4.0% by weight of the total composition. The traditional environmentally toxic chlorinated antimicrobials for cleansing hygiene bars such as Chlorhexidne, Triclosan, Chloroxylenol, Climbazole, Triclocarban (banned in 2017) or other traditional anti-dandruff (antifungal) agents like Climbazole or Octopirox (monoethanol amine salt of piroctone), Zinc pyrithion (now banned in EU) etc. generate unsalvageable waste at every step of the multistep syntheses. In contrast to the facts (hazardous synthesis and toxicity) of traditional antimicrobials for solid cleansers, the lipidated glycines, that are part of solid compositions of the present invention, are manufactured by green chemistry without generating any unsalvageable/non-disposable waste as taught by IN patent 362888. Also, it is to be noted that N-acyl glycines are biodegradable and environmentally benign. These two lipidated glycines (Formula I and Formula II) are organic acids and by adding them in the second stage of processing when the mass of the first stage is being kneaded with limited amount of water in a sigma blender, helps to achieve the desired pH of the final solid cleanser. pH of the final solid cleanser can be brought down from 6.0 to 4.0 by incorporating these acyl glycines at an amount of about 0.5% to 4.0% of the total composition. The two N-acyl glycines can be used individually or in a combination. Examples 1 to 9 deploy either N-capryloyl glycine or N-undecylenoyl glycine, however, Example 10 to 13 use both of N-capryloyl glycine and N-undecylenoyl glycine. Higher % of capryloyl glycine (around 3.0% of the total composition) results in lower pH that is intended for anti-acne or feminine intimate hygiene wash as exemplified in Example 3. Minimum inhibitory concentrations of capryloyl glycine (CG) and undecylenoyl glycine (UG) and their combination (CG-UG) in 1:1 molar ratio using 1% solution at pH 5.5 are given in Table 1. […] The MIC numbers (less than 0.1%) for the N-acyl glycines against Gardnerella bacterium are extremely good. […] The preferred antimicrobials for the solid cleansers of the present invention are the combination of N-capryloyl glycine and N-undecylenoyl glycine in the molar ratio of 1:1.

[2] = system: Aspergillus niger ATCC 16404
Source text: as §1

[3] = system: Staphylococcus aureus ATCC 6538
Source text: as §1

[4] = system: Malassezia furfur ATCC 14521
Source text: as §1

[5] = system: Candida albicans ATCC 10231
Source text: as §1

[6] = system: Burkholderia cepacia ATCC 25416
Source text: as §1

[7] = system: Staphylococcus hominis MTCC 8980
Source text: as §1

[8] = system: Gardnerella vaginalis ATCC 14018
Source text: as §1

[9] = system: Staphylococcus epidermidis NCIM 2493
Source text: as §1

[10] = system: Propionibacterium acnes MTCC 1951
Source text: as §1

[11] = system: Micrococcus luteus NCIM 2103
Source text: as §1

[12] = system: Candida glabrata ATCC 66032
Source text: as §1

[13] = system: Escherichia coli ATCC 8739
Source text: as §1

[14] = system: Malassezia restricta ATCC MYA 4611
Source text: as §1

[15] = system: Corynebacterium xerosis ATCC 373
Source text: as §1

Row | Compound | Minimum Inhibitory Concentration [1] [%] | Minimum Inhibitory Concentration [2] [%] | Minimum Inhibitory Concentration [3] [%] | Minimum Inhibitory Concentration [4] [%] | Minimum Inhibitory Concentration [5] [%] | Minimum Inhibitory Concentration [6] [%] | Minimum Inhibitory Concentration [7] [%] | Minimum Inhibitory Concentration [8] [%] | Minimum Inhibitory Concentration [9] [%] | Minimum Inhibitory Concentration [10] [%] | Minimum Inhibitory Concentration [11] [%] | Minimum Inhibitory Concentration [12] [%] | Minimum Inhibitory Concentration [13] [%] | Minimum Inhibitory Concentration [14] [%] | Minimum Inhibitory Concentration [15] [%]
1 | C=CCCCCCCCCC(=O)NCC(=O)O [UG, N-undecylenoyl glycine] | 1 | 1 | 0.6 | 0.5 | 1 | 1 | 0.2 | 0.06 | 0.4 | 1 | 0.5 | 0.9 | 0.9 | 0.4 | 0.7
2 | CCCCCCCC(=O)NCC(=O)O [CG, N-capryloyl glycine] | 1 | 1 | 1 | 0.5 | 0.6 | 1 | 0.3 | 0.09 | 1 | 1 | 1 | 1 | 0.7 | 0.4 | 1.
